Source: patent publication US5079157A, “Novel choline oxidase and method for producing the same” (priority 1988, dated 1992)
Where two headings read alike, the source gives them in different places.

What was measured:
choline oxidase [1] = format: biochemical
Experimental: (§1) Enzymatic activity (U/ml)=ΔA/min.×10.17×dilution ratio
Various substances were added to the reaction mixture to be used for the determination of enzymatic activity as described in the above (2) and the inhibitory effects were examined.

choline oxidase [2] = assay: Substrate specificity of choline oxidase (authentic sample of Example 1); format: biochemical, Streptomyces thermoluteus subsp. fuscus C-19; settings: substrate used in place of choline chloride; relative to choline; enzyme of Example 1; Tris-HCl pH 8.0, 37° C
Experimental: as §1
According to the above determination method of enzymatic activity, various substrates shown in Table 2 were used in place of choline chloride in the reaction mixture, their relative activities to choline were determined. As the enzyme, the authentic sample obtained in Example 1 hereinafter was employed.

[3] = system: choline oxidase (authentic sample T); settings: authentic sample T (Example 10)
Experimental: (§2) A peroxidase (obtained from horse radish, 100 units/mg, Type I, Sigma Chemical Co., U.S.A.) is dissolved in the above mixture to obtain a reaction mixture. The reaction mixture (3.0 ml) is placed in a cuvette (d=1.0 cm) and subjected to pre-heating at 37° C. for 5 minutes. Then, the changes of absorbance at 500 nm at 37° C. are recorded by an autographic recording spectrophotometer (UV-260 Type, Shimadzu Seisakusho, Ltd.) and the changes of absorbance per minute (ΔA/min.) from the initial straight line portion are determined. The enzymatic activity is calculated by the following formula:

[4] = target: T1, choline oxidase (authentic sample S) (Saccharopolyspora hirsuta, UniProt A0A5M7BLR6); settings: authentic sample S (Example 11)
T1 sequence (A0A5M7BLR6 1-515): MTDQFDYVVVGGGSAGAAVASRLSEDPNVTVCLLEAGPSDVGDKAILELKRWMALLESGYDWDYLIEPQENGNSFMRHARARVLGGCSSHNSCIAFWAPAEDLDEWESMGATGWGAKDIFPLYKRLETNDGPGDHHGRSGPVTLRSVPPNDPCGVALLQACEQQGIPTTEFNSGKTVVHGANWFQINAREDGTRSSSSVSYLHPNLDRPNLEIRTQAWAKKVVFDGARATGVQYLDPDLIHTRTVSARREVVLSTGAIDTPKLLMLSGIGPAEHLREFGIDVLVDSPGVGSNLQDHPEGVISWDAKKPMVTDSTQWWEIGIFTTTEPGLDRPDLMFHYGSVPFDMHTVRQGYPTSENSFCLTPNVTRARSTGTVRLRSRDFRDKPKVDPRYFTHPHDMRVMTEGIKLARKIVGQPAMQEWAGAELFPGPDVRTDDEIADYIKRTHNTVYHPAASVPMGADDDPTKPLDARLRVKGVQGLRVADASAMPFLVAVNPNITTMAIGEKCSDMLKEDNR
Experimental: as §2

[5] = additive 5 mM, without addition = 100
[6] = additive 1.0 mM, without addition = 100

[Cl-].[Li+] [LiCl]
Relative Activity (%) (choline oxidase [1]; [5]): 100%

[Ba+2].[Cl-].[Cl-] [BaCl2]
Relative Activity (%) (choline oxidase [1]; [5]): 100%

CNCCO [N-methylaminoethanol]
Relative Activity (%) (choline oxidase [2]): 0%

[Cl-].[Cl-].[Co+2] [CoCl2]
Relative Activity (%) (choline oxidase [1]; [5]): 36.9%

[Cl][Mn][Cl] [MnCl2]
Relative Activity (%) (choline oxidase [1]; [5]): 100%

[Cl][Hg][Cl] [HgCl2]
Relative Activity (%) (choline oxidase [1]; additive 0.05 mM, without addition = 100): 83.3%
Relative Activity (%) (choline oxidase [1]; additive 0.5 mM, without addition = 100): 60.1%
Relative Activity (%) (choline oxidase [1]; [6]): 50.0%

[Cl][Mo]([Cl])([Cl])([Cl])[Cl] [MoCl5]
Relative Activity (%) (choline oxidase [1]; [6]): 18.1%

[Cl-].[Cl-].[Mg+2] [MgCl2]
Relative Activity (%) (choline oxidase [1]; [5]): 93.8%

[Cl-].[Na+] [NaCl]
Relative Activity (%) (choline oxidase [1]): 100%

[Cl-].[K+] [KCl]
Relative Activity (%) (choline oxidase [1]; [5]): 98.0%

NCCO [Monoethanolamine]
Relative Activity (%) (choline oxidase [2]): 0%

C[N+](C)(C)CC=O [Betaine aldehyde]
reactivity of the enzyme to the substrate [3]: showed reactivity
reactivity of the enzyme to the substrate [4]: showed reactivity
Relative Activity (%) (choline oxidase [2]): 41.9%

[Cl-].[Cl-].[Zn+2] [ZnCl2]
Relative Activity (%) (choline oxidase [1]; [5]): 82.9%

Cl.N [NH4 Cl]
Relative Activity (%) (choline oxidase [1]; [5]): 100%

OCCNCCO [Diethanolamine]
Relative Activity (%) (choline oxidase [2]): 0%

[Ca+2].[Cl-].[Cl-] [CaCl2]
Relative Activity (%) (choline oxidase [1]; [5]): 100%
